Data published in US10703751B2, “Amino-imidazopyridine derivatives as Janus kinase inhibitors and pharmaceutical use thereof” (LEO Pharma A/S, priority 2017, dated 2020).
Where two headings read alike, the source gives them in different places.

Legend:
[1] = target: JAK2 (Homo sapiens (Human), UniProt O60674); assay: JAK2 kinase assay (HTRF); format: biochemical; settings: ATP at Km (4 μM)
Experimental: (§1) Human baculovirus-expressed Janus kinase (JAK) 1, 2, 3 and tyrosin kinase (TYK) 2 were purchased from Carna Biosciences, Inc (#08-144, -045, -046, -147 resp.). All four purified enzymes contain only the catalytic domain. JAK1 (aa 850-1154) and TYK2 (aa 871-1187) are expressed with an N-terminally fused GST-tag, and JAK2 and JAK3 with an N-terminally fused His-tag. Inhibition of phosphorylation of a synthetic peptide was measured in an HTRF-based assay (CisBio #62TKOPEC). First, 75 nL of test compound solution (100% DMSO) was added to a white shallow 384-well plate (NUNC #264706) using a Labcyte ECHO 550 liquid handler. Thereafter, 1 μL of compound dilution buffer (50 mM HEPES, 0.05% bovine serum albumin) and 2 μL of TK solution (TK substrate-biotin in kinase buffer [1× enzymatic buffer from HTRFKinEASE TK kit, 1 mM DTT]) was added. Then, 5 μL kinase-ATP mix (prepared in kinase buffer) was added to the wells and the plates were incubated at RT for 20 (JAK2, 3 and TYK2) to 40 (JAK1) min. For all four kinases a concentration of ATP that corresponded to the Km for ATP was used. The final concentrations of buffers, substrate, kinase and ATP were: JAK1: 50 mM Hepes buffer pH 7.0, 0.01% BSA, 10 mM MgCl2, 1 mM DTT, 7 μM ATP, 50 nM SEB, 1 μM TK Substrate-Biotin and 5 ng/well JAK1; JAK2: 50 mM Hepes buffer pH 7.0, 0.01% BSA, 5 mM MgCl2, 1 mM DTT, 4 μM ATP, 1 μM TK Substrate-Biotin and 0.1 ng/well JAK2; JAK3: 50 mM Hepes buffer pH 7.0, 0.01% BSA, 5 mM MgCl2, 1 mM DTT, 2 μM ATP, 1 μM TK Substrate-Biotin and 0.3 ng/well JAK3; TYK2: 50 mM Hepes buffer pH 7.0, 0.01% BSA, 5 mM MgCl2, 1 mM DTT, 13 μM ATP, 50 nM SEB, 1 μM TK Substrate-Biotin and 0.8 ng/well TYK2. Thereafter, the kinase reaction was stopped by adding 4 μL detection mix (final concentrations: 50 mM Hepes buffer pH 7.0, 0.01% BSA, 0.8 M KF, 20 mM EDTA, 42 nM Streptavidin-XL665 and 1:400 STK Ab Cryptate) and the plates were incubated overnight in the dark. A PerkinElmer Envision reader was used to quantify the HTRF signal using the following filters; 320 nm excitation filter, 665 nm emission filter and a 615 nm 2nd emission filter. A ratio ((665/615)×10^4) was calculated for each well.

[2] = target: TYK2 (Homo sapiens (Human), UniProt P29597); assay: TYK2 kinase assay (HTRF); format: biochemical
TYK2, sequence (P29597 871-1187): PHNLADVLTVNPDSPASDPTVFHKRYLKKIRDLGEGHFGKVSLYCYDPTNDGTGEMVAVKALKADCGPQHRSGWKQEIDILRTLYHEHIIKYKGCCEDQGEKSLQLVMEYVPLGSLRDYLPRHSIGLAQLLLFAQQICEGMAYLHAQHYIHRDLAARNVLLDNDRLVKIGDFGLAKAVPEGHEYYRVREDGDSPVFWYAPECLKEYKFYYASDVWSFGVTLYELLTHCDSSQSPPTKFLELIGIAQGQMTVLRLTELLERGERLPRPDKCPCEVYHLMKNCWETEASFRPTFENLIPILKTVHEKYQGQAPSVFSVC
Experimental: as §1

[3] = tested on: STAT6 bla-RA1 cells; assay: STAT6 assay (IL-4 stimulated reporter cells); format: cell-based; settings: for EC50: interleukin 4 10 ng/mL; for STAT5/STAT6 EC50 ratio (selectivity for STAT6 over STAT5): selectivity for STAT6 over STAT5, from EC50
Experimental: Twenty-five μL of a STAT6 bla-RA1 (Invitrogen # K1243) cell suspension was seeded with a density of 30-40,000 cells/well in 384-well Black View-plates (PerkinElmer #6007460) with clear bottom in assay medium (Opti-MEM (Invitrogen #11058-021)+0.5% heat inactivated fetal bovine Serum (Invitrogen #10082-147)+1% non-essential amino acids (Invitrogen #11140-050)+1% sodium pyruvate (Invitrogen #11360-070)+1% penicillin/streptomycin (Invitrogen #15140-122)); containing 550 ng/mL of CD40 ligand (Invitrogen # PHP0025). The cell plates were incubated overnight in a humidified 37° C. air/CO2 (95%/5%) incubator. The following day, 125 nL of solutions of test compounds and reference compounds were transferred to cell plates using the Labcyte Echo 550 liquid handler. The plates were then incubated for 1 h in a humidified 37° C. air/CO2 (95%/5%) incubator. Hereafter recombinant human interleukin 4 (Invitrogen # PHC0045) were added to the plates also using the Labcyte Echo 550 to a final concentration of 10 ng/mL. The cells were then incubated for 4½-5 h in a humidified 37° C. air/CO2 (95%/5%) incubator. 8 μL of LiveBLAzer substrate mixture (Invitrogen # K1095) were then added to the assay plates, which were incubated overnight at RT. Fluorescence was then measured: Excitation: 405 nm; Emission: 460 nm (green channel), Emission: 535 nm (blue channel). Background was subtracted in both emission channels and the ratio 460/535 nm was calculated for each well.

[4] = target: CYP2C19 (Homo sapiens (Human), UniProt P33261); assay: Reversible CYP inhibition, 2C19; format: in vitro ADME; settings: up to 50 μM for Example 3, up to 25 μM for Examples 644 and 641
CYP2C19, sequence (P33261 whole entry): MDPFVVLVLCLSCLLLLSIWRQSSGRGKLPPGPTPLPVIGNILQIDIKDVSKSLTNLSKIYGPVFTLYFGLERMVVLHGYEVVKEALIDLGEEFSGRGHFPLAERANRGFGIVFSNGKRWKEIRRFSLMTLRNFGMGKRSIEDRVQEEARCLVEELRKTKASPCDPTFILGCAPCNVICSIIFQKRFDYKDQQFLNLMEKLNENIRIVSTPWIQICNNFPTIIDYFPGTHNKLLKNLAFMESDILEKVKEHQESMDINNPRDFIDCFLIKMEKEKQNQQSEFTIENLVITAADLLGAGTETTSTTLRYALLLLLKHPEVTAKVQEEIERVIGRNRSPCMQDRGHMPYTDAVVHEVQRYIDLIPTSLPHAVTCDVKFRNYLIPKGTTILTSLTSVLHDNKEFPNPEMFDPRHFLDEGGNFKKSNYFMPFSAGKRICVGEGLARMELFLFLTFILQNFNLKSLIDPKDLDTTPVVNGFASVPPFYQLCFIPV
Experimental: (§2) Reversible CYP inhibition, time dependent CYP inhibition (TDI) and CYP induction was tested at Cyprotex PLC according to authority guidance.

[5] = target: CYP2D6 (Homo sapiens (Human), UniProt P10635); assay: Reversible CYP inhibition, 2D6; format: in vitro ADME; settings: up to 50 μM for Example 3, up to 25 μM for Examples 644 and 641
CYP2D6, sequence (P10635 whole entry): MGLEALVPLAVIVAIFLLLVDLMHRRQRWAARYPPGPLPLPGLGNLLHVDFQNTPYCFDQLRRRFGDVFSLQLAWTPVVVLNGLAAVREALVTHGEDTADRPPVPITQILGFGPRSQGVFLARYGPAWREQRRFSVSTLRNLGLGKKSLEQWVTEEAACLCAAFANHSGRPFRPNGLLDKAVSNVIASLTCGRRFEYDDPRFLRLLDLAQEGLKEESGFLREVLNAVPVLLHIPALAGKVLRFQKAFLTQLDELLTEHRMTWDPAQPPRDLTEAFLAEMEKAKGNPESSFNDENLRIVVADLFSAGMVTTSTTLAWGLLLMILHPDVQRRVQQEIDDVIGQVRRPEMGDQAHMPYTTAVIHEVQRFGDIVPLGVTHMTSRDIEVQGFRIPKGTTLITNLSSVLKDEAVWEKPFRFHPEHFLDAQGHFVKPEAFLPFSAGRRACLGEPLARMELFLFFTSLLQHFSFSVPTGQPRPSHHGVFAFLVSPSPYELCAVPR
Experimental: as §2

[6] = tested on: CYP3A4 gene expression; assay: CYP induction, CYP3A4 mRNA expression; format: in vitro ADME
Experimental: as §2
Induction of CYP1A2, CYP2B6 and CYP3A4 gene expression can serve as sensitive representative endpoints for activation of aryl hydrocarbon receptor (AhR), […], respectively. Induction of these nuclear receptors was assessed by measuring the increase in mRNA encoding for […], respectively, at relevant concentrations.
A >2-fold shift indicate CYP Induction.

JAK2, sequence (O60674 849-1124): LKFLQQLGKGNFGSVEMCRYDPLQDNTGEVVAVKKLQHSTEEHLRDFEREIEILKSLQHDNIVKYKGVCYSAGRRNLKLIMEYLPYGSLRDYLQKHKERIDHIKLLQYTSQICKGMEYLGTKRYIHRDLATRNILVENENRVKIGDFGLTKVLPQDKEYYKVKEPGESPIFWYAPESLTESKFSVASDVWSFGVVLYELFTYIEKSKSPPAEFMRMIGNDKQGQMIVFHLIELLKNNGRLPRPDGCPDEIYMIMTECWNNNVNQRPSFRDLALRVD

EC50 [2]	SMILES	EC50 [1]	EC50 ([2]; ATP at Km (13 μM))	EC50 [3]	STAT5/STAT6 EC50 ratio (selectivity for STAT6 over STAT5) [3]	IC50 [4]	IC50 [5]	CYP3A4 induction (in words) [6]
	CNc1cc2c(cn1)nc([C@@H](C)O)n2[C@H]1CC[C@H](CC#N)CC1 [Example 3, trans-2-[4-[2-[(1R)-1-Hydroxyethyl]-6-(methylamino)imidazo[4,5-c]pyridin-1-yl]cyclohexyl]acetonitrile]	171 nM	32 nM	94.5 nM	68	> 50000 nM	> 50000 nM	does not cause CYP3A4 induction up to at least a concentration of 50 μM
	C[C@@H](O)c1nc2cnc3[nH]ccc3c2n1[C@H]1CC[C@H](CC#N)CC1 [Example 644 of WO2011086053]	3.34 nM	3.32 nM	10.5 nM		> 25000 nM	> 25000 nM	causes CYP3A4 induction at a concentration of 10 μM
115 nM	C[C@@H](O)c1nc2cnc3[nH]ccc3c2n1[C@H]1CC[C@H](C#N)CC1 [Example 641 of WO2011086053]	228 nM		178 nM	32	> 25000 nM	> 25000 nM	causes CYP3A4 induction at a concentration of 20 μM and above
